Laboratory results reported in ChEMBL document CHEMBL3045554, “Synthesis and antimicrobial screening of N-(1-methyl-1H-pyrazole-4-carbonyl)-thiourea derivatives” (2012).
The source made the active and inactive calls.

How the values were obtained:
Enterococcus faecalis [1] = assay: Effect on gelatinase production in Enterococcus faecalis 13773 after 24 hr by gelatin hydrolysis test; assay type: functional, organism-based
Staphylococcus aureus [2] = assay: Effect on esculethol production in Staphylococcus aureus after 24 hr by esculin hydrolysis test; assay type: functional, organism-based
Pseudomonas aeruginosa [3] = assay: Inhibition of caseinase production in Pseudomonas aeruginosa 5541 after 24 hr by casein hydrolysis assay; assay type: functional, organism-based
Escherichia coli [4] = assay: Effect on gelatinase production in Escherichia coli 637/2007 after 24 hr by gelatin hydrolysis test; assay type: functional, organism-based
Bacillus subtilis [5] = assay: Effect on gelatinase production in Bacillus subtilis 10.10.2006 after 24 hr by gelatin hydrolysis test; assay type: functional, organism-based
Klebsiella pneumoniae [6] = assay: Effect on amylase production in Klebsiella pneumoniae 126/2007 after 24 hr by starch hydrolysis assay; assay type: functional, organism-based
Acinetobacter baumannii [7] = assay: Inhibition of lecithinase production in Acinetobacter baumannii 15896 after 7 days; assay type: functional, organism-based
Acinetobacter baumannii [8] = assay: Effect on DNase production in Acinetobacter baumannii 15896 after 24 hr; assay type: functional, organism-based
Klebsiella pneumoniae [9] = assay: Antimicrobial activity against Klebsiella pneumoniae 126/2007 by microdilution method; assay type: functional
Escherichia coli [10] = assay: Effect on lipase production in Escherichia coli 637/2007 after 7 days; assay type: functional, organism-based
Staphylococcus aureus [11] = assay: Effect on DNase production in Staphylococcus aureus after 24 hr; assay type: functional, organism-based
Enterococcus faecalis [12] = assay: Inhibition of lecithinase production in Enterococcus faecalis 13773 after 7 days; assay type: functional, organism-based
Klebsiella pneumoniae [13] = assay: Effect on gelatinase production in Klebsiella pneumoniae 126/2007 after 24 hr by gelatin hydrolysis test; assay type: functional, organism-based
Staphylococcus aureus [14] = assay: Effect on amylase production in Staphylococcus aureus after 24 hr by starch hydrolysis assay; assay type: functional, organism-based
Acinetobacter baumannii [15] = assay: Inhibition of caseinase production in Acinetobacter baumannii 15896 after 24 hr by casein hydrolysis assay; assay type: functional, organism-based
Klebsiella pneumoniae [16] = assay: Effect on esculethol production in Klebsiella pneumoniae 126/2007 after 24 hr by esculin hydrolysis test; assay type: functional, organism-based
Acinetobacter baumannii [17] = assay: Effect on lipase production in Acinetobacter baumannii 15896 after 7 days; assay type: functional, organism-based
Escherichia coli [18] = assay: Inhibition of lecithinase production in Escherichia coli 637/2007 after 7 days; assay type: functional, organism-based
Enterococcus faecalis [19] = assay: Inhibition of caseinase production in Enterococcus faecalis 13773 after 24 hr by casein hydrolysis assay; assay type: functional, organism-based
Staphylococcus aureus [20] = assay: Effect on lipase production in Staphylococcus aureus after 7 days; assay type: functional, organism-based
Bacillus subtilis [21] = assay: Antimicrobial activity against Bacillus subtilis 10.10.2006 by microdilution method; assay type: functional
Bacillus subtilis [22] = assay: Effect on esculethol production in Bacillus subtilis 10.10.2006 after 24 hr by esculin hydrolysis test; assay type: functional, organism-based
Acinetobacter baumannii [23] = assay: Effect on amylase production in Acinetobacter baumannii 15896 after 24 hr by starch hydrolysis assay; assay type: functional, organism-based
Pseudomonas aeruginosa [24] = assay: Effect on esculethol production in Pseudomonas aeruginosa 5541 after 24 hr by esculin hydrolysis test; assay type: functional, organism-based
Escherichia coli [25] = assay: Antimicrobial activity against Escherichia coli 637/2007 by microdilution method; assay type: functional
Klebsiella pneumoniae [26] = assay: Effect on DNase production in Klebsiella pneumoniae 126/2007 after 24 hr; assay type: functional, organism-based
Bacillus subtilis [27] = assay: Effect on amylase production in Bacillus subtilis 10.10.2006 after 24 hr by starch hydrolysis assay; assay type: functional, organism-based
Enterococcus faecalis [28] = assay: Effect on esculethol production in Enterococcus faecalis 13773 after 24 hr by esculin hydrolysis test; assay type: functional, organism-based
Enterococcus faecalis [29] = assay: Antimicrobial activity against Enterococcus faecalis 13773 by microdilution method; assay type: functional
Acinetobacter baumannii [30] = assay: Antimicrobial activity against Acinetobacter baumannii 15896 by microdilution method; assay type: functional
Pseudomonas aeruginosa [31] = assay: Effect on lipase production in Pseudomonas aeruginosa 5541 after 7 days; assay type: functional, organism-based
Bacillus subtilis [32] = assay: Inhibition of caseinase production in Bacillus subtilis 10.10.2006 after 24 hr by casein hydrolysis assay; assay type: functional, organism-based
Pseudomonas aeruginosa [33] = assay: Effect on DNase production in Pseudomonas aeruginosa 5541 after 24 hr; assay type: functional, organism-based
Enterococcus faecalis [34] = assay: Effect on DNase production in Enterococcus faecalis 13773 after 24 hr; assay type: functional, organism-based
Staphylococcus aureus [35] = assay: Effect on gelatinase production in Staphylococcus aureus after 24 hr by gelatin hydrolysis test; assay type: functional, organism-based
Acinetobacter baumannii [36] = assay: Effect on esculethol production in Acinetobacter baumannii 15896 after 24 hr by esculin hydrolysis test; assay type: functional, organism-based
Bacillus subtilis [37] = assay: Effect on lipase production in Bacillus subtilis 10.10.2006 after 7 days; assay type: functional, organism-based
Pseudomonas aeruginosa [38] = assay: Effect on amylase production in Pseudomonas aeruginosa 5541 after 24 hr by starch hydrolysis assay; assay type: functional, organism-based
Pseudomonas aeruginosa [39] = assay: Antimicrobial activity against Pseudomonas aeruginosa 5541 by microdilution method; assay type: functional
Escherichia coli [40] = assay: Effect on amylase production in Escherichia coli 637/2007 after 24 hr by starch hydrolysis assay; assay type: functional, organism-based
Staphylococcus aureus [41] = assay: Inhibition of caseinase production in Staphylococcus aureus after 24 hr by casein hydrolysis assay; assay type: functional, organism-based
Enterococcus faecalis [42] = assay: Effect on lipase production in Enterococcus faecalis 13773 after 7 days; assay type: functional, organism-based
Escherichia coli [43] = assay: Inhibition of caseinase production in Escherichia coli 637/2007 after 24 hr by casein hydrolysis assay; assay type: functional, organism-based
Staphylococcus aureus [44] = assay: Antimicrobial activity against Staphylococcus aureus by microdilution method; assay type: functional
Escherichia coli [45] = assay: Effect on DNase production in Escherichia coli 637/2007 after 24 hr; assay type: functional, organism-based
Pseudomonas aeruginosa [46] = assay: Effect on gelatinase production in Pseudomonas aeruginosa 5541 after 24 hr by gelatin hydrolysis test; assay type: functional, organism-based
Klebsiella pneumoniae [47] = assay: Inhibition of lecithinase production in Klebsiella pneumoniae 126/2007 after 7 days; assay type: functional, organism-based
Klebsiella pneumoniae [48] = assay: Inhibition of caseinase production in Klebsiella pneumoniae 126/2007 after 24 hr by casein hydrolysis assay; assay type: functional, organism-based
Staphylococcus aureus [49] = assay: Inhibition of lecithinase production in Staphylococcus aureus after 7 days; assay type: functional, organism-based
Escherichia coli [50] = assay: Effect on esculethol production in Escherichia coli 637/2007 after 24 hr by esculin hydrolysis test; assay type: functional, organism-based
Pseudomonas aeruginosa [51] = assay: Inhibition of lecithinase production in Pseudomonas aeruginosa 5541 after 7 days; assay type: functional, organism-based
Bacillus subtilis [52] = assay: Inhibition of lecithinase production in Bacillus subtilis 10.10.2006 after 7 days; assay type: functional, organism-based
Klebsiella pneumoniae [53] = assay: Effect on lipase production in Klebsiella pneumoniae 126/2007 after 7 days; assay type: functional, organism-based
Acinetobacter baumannii [54] = assay: Effect on gelatinase production in Acinetobacter baumannii 15896 after 24 hr by gelatin hydrolysis test; assay type: functional, organism-based
Bacillus subtilis [55] = assay: Effect on DNase production in Bacillus subtilis 10.10.2006 after 24 hr; assay type: functional, organism-based
Enterococcus faecalis [56] = assay: Effect on amylase production in Enterococcus faecalis 13773 after 24 hr by starch hydrolysis assay; assay type: functional, organism-based

CCCc1ccccc1NC(=S)NC(=O)c1cnn(C)c1
inactive: Activity (Enterococcus faecalis [1]) | Activity (Staphylococcus aureus [2]) | inhibition (Pseudomonas aeruginosa [3]) | Activity (Escherichia coli [4]) | Activity (Bacillus subtilis [5]) | Activity (Klebsiella pneumoniae [6]) | inhibition (Acinetobacter baumannii [7]) | Activity (Acinetobacter baumannii [8]) | Activity (Escherichia coli [10]) | Activity (Staphylococcus aureus [11]) | inhibition (Enterococcus faecalis [12]) | Activity (Klebsiella pneumoniae [13]) | Activity (Staphylococcus aureus [14]) | inhibition (Acinetobacter baumannii [15]) | Activity (Klebsiella pneumoniae [16]) | Activity (Acinetobacter baumannii [17]) | inhibition (Escherichia coli [18]) | inhibition (Enterococcus faecalis [19]) | Activity (Staphylococcus aureus [20]) | Activity (Bacillus subtilis [22]) | Activity (Acinetobacter baumannii [23]) | Activity (Pseudomonas aeruginosa [24]) | Activity (Klebsiella pneumoniae [26]) | Activity (Bacillus subtilis [27]) | Activity (Enterococcus faecalis [28]) | Activity (Pseudomonas aeruginosa [31]) | inhibition (Bacillus subtilis [32]) | Activity (Pseudomonas aeruginosa [33]) | Activity (Enterococcus faecalis [34]) | Activity (Staphylococcus aureus [35]) | Activity (Acinetobacter baumannii [36]) | Activity (Bacillus subtilis [37]) | Activity (Pseudomonas aeruginosa [38]) | Activity (Escherichia coli [40]) | inhibition (Staphylococcus aureus [41]) | Activity (Enterococcus faecalis [42]) | Activity (Escherichia coli [45]) | Activity (Pseudomonas aeruginosa [46]) | inhibition (Klebsiella pneumoniae [47]) | inhibition (Klebsiella pneumoniae [48]) | inhibition (Staphylococcus aureus [49]) | Activity (Escherichia coli [50]) | inhibition (Pseudomonas aeruginosa [51]) | inhibition (Bacillus subtilis [52]) | Activity (Klebsiella pneumoniae [53]) | Activity (Acinetobacter baumannii [54]) | Activity (Bacillus subtilis [55]) | Activity (Enterococcus faecalis [56])
500 µg/mL: MIC (Klebsiella pneumoniae [9]) | MIC (Bacillus subtilis [21]) | MIC (Staphylococcus aureus [44])
250 µg/mL: MIC (Enterococcus faecalis [29]) | MIC (Acinetobacter baumannii [30])
active: inhibition (Escherichia coli [43])
1000 µg/mL: MIC (Escherichia coli [25]) | MIC (Pseudomonas aeruginosa [39])

Cc1ccc(NC(=S)NC(=O)c2cnn(C)c2)cc1
> 1000 µg/mL: MIC (Klebsiella pneumoniae [9]) | MIC (Bacillus subtilis [21]) | MIC (Escherichia coli [25]) | MIC (Enterococcus faecalis [29]) | MIC (Acinetobacter baumannii [30]) | MIC (Pseudomonas aeruginosa [39]) | MIC (Staphylococcus aureus [44])
